Experimental data published in PMC10301603, “Potent and Selective Benzothiazole-Based Antimitotics with Improved Water Solubility: Design, Synthesis, and Evaluation as Novel Anticancer Agents” (Pharmaceutics, 2023).

System: not listed separately
Experiment: Aqueous solubility, shake-flask method
Type: physicochemical
Settings: pH 7.0 buffer, pH 7, aqueous buffer, thermodynamic from solid, shaking flask, buffered media at pH 7.0, mean of three
Procedure: The aqueous solubility of compounds was measured in a Helios Alfa Spectrophotometer. Calibration lines at the maximum wavelength of absorbance were determined for each compound. Then, following the shake-flask method, a suspension of 5 mg of each compound in 500 µL in pH 7.0 buffer was stirred for 72 h at room temperature. The mixture was then filtrated over a […] filter to remove the insoluble fraction. The concentration of the compound in the resulting saturated solution was determined via UV absorbance measurement and interpolation in the calibration line. The aqueous solubility values are given as the average of three independent measurements.
`CCNC(=O)N(Cc1ccc2ccccc2c1)c1nc2ccc(OC)cc2s1` [Compound 12, 3-ethyl-1-(6-methoxybenzo[d]thiazol-2-yl)-1-(naphthalen-2-ylmethyl)urea] showed a solubility at 72 h of less than 9 µg/mL.
For `COc1ccc2nc(N(Cc3ccc4ccccc4c3)C(C)=O)sc2c1` [Compound 24, N-(6-methoxybenzo[d]thiazol-2-yl)-N-(naphthalen-2-ylmethyl)acetamide], the solubility at 72 h was less than 9 µg/mL.

System: HT-29 cells
Experiment: Cell growth inhibition assay (MTT)
Type: cell-based, human
Settings: Homo sapiens, HT-29, 72 h after drug exposure
Procedure: (§1) The cell lines were obtained from ATTC (Manassas, VA, USA). HeLa (human cervix epithelioid carcinoma), MCF7 (human breast adenocarcinoma), HepG2 (human hepatocellular carcinoma), U87 MG (human glioblastoma), T98G (human glioblastoma), GL261 (murine glioma), LNCaP (human prostate cancer), PC-3 (human prostate cancer), and HEK-293 (human embryonic kidney) were grown in Dulbecco’s modified Eagle’s medium (DMEM, Gibco, Waltham, MA, USA), supplemented with 10% (v/v) heat-inactivated fetal bovine serum (HIFBS, Sigma-Aldrich, St. Louis, MO, USA)), 2 mM L-glutamine, 100 μg/mL streptomycin, and 100 units/mL penicillin (Gibco, Waltham, MA, USA) at 37 °C in saturated humidity atmosphere containing 95% air and 5% CO2. Cell line HT-29 (human colon carcinoma) was grown in Roswell Park Memorial Institute (RPMI) 1640 medium (Gibco, Whaltman, MA, USA) supplemented with 10% HIFBS, 100 μg/mL streptomycin, and 100 units/mL penicillin (Gibco, Whaltman, MA, USA) at 37 °C in humidified 95% air and 5% CO2 atmosphere. MycoAlert kit (Lonza, Norwest, Australia) was used to routinely check the presence of mycoplasma, and only mycoplasma-free cells were employed in the experiments.
(§2) Cells were plated in 96-well plates (100 µL/well) at the following concentrations: 30,000 cells/mL (HepG2, U87 MG, T98G, C6, LNCaP, PC3, and HT-29 cells) or 15,000 cells/mL (HeLa and MCF-7 cells). Previous experiments were performed to choose the optimal cell concentration (70–80% confluence) and avoid the formation of cell aggregates. Cells were incubated in complete DMEM or RPMI 1640 medium (see above) at 37 °C and 5% CO2 atmosphere for 24 h to allow for cell attachment to the plate. Then, every compound was added (10 µL/well) to a final concentration of 10 µM. Non-treated cells were used as negative controls. The antiproliferative activity of compounds was measured 72 h after the treatments using the MTT reagent (3-[4,5-dimethylthiazol-2-yl]-2,5-diphenyltetrazolium bromide), (MTT Thiazolyl Blue Tetrazolium Bromide, Sigma-Aldrich, St. Louis, MO, USA) dissolved in PBS at 5 mg/mL. Compounds showing antiproliferative effects at 10 µM were selected to determine their IC50 value. For that purpose, compounds were used at different concentrations ranging from 10^−10 to 10^−2 M. Measurements were performed in triplicate, and each experiment was repeated three times. The IC50 value was determined for every compound using Origin software (OriginLab, Washington, USA). To study the sensitivity to MDR efflux pumps of compounds, the IC50 values were determined by following the same procedure but in the presence of verapamil (final concentration of 10 µM).
For `CCNC(=O)N(Cc1ccc2ccccc2c1)c1nc2ccc(OC)cc2s1` [Compound 12, 3-ethyl-1-(6-methoxybenzo[d]thiazol-2-yl)-1-(naphthalen-2-ylmethyl)urea], the IC50 was greater than 10 µM.
`COc1ccc2nc(N(Cc3ccc4ccccc4c3)C(C)=O)sc2c1` [Compound 24, N-(6-methoxybenzo[d]thiazol-2-yl)-N-(naphthalen-2-ylmethyl)acetamide] gave an IC50 greater than 10 µM.

System: HeLa cells
Experiment: Cell growth inhibition assay (MTT)
Type: cell-based, human
Settings: Homo sapiens, HeLa, 72 h after drug exposure
Procedure: as §1, §2
With `CCNC(=O)N(Cc1ccc2ccccc2c1)c1nc2ccc(OC)cc2s1` [Compound 12, 3-ethyl-1-(6-methoxybenzo[d]thiazol-2-yl)-1-(naphthalen-2-ylmethyl)urea] the IC50 was greater than 10 µM.
`COc1ccc2nc(N(Cc3ccc4ccccc4c3)C(C)=O)sc2c1` [Compound 24, N-(6-methoxybenzo[d]thiazol-2-yl)-N-(naphthalen-2-ylmethyl)acetamide] showed an IC50 greater than 10 µM.

System: HepG2 cells
Experiment: Cell growth inhibition assay (MTT)
Type: cell-based, human
Settings: Homo sapiens, HepG2, 72 h after drug exposure
Procedure: as §1, §2
In the case of `CCNC(=O)N(Cc1ccc2ccccc2c1)c1nc2ccc(OC)cc2s1` [Compound 12, 3-ethyl-1-(6-methoxybenzo[d]thiazol-2-yl)-1-(naphthalen-2-ylmethyl)urea], the IC50 is reported as greater than 10 µM.
In the case of `COc1ccc2nc(N(Cc3ccc4ccccc4c3)C(C)=O)sc2c1` [Compound 24, N-(6-methoxybenzo[d]thiazol-2-yl)-N-(naphthalen-2-ylmethyl)acetamide], the IC50 is reported as greater than 10 µM.

System: LNCaP cells
Experiment: Cell growth inhibition assay (MTT)
Type: cell-based, human
Settings: Homo sapiens, LNCaP, 72 h after drug exposure
Procedure: as §1, §2
`CCNC(=O)N(Cc1ccc2ccccc2c1)c1nc2ccc(OC)cc2s1` [Compound 12, 3-ethyl-1-(6-methoxybenzo[d]thiazol-2-yl)-1-(naphthalen-2-ylmethyl)urea] gave an IC50 greater than 10 µM.
With `COc1ccc2nc(N(Cc3ccc4ccccc4c3)C(C)=O)sc2c1` [Compound 24, N-(6-methoxybenzo[d]thiazol-2-yl)-N-(naphthalen-2-ylmethyl)acetamide] the IC50 was greater than 10 µM.

System: MCF7 cells
Experiment: Cell growth inhibition assay (MTT)
Type: cell-based, human
Settings: Homo sapiens, MCF7; MTT, 72 h after drug exposure
Procedure: as §1, §2
In the case of `CCNC(=O)N(Cc1ccc2ccccc2c1)c1nc2ccc(OC)cc2s1` [Compound 12, 3-ethyl-1-(6-methoxybenzo[d]thiazol-2-yl)-1-(naphthalen-2-ylmethyl)urea], the IC50 is reported as greater than 10 µM.
With `COc1ccc2nc(N(Cc3ccc4ccccc4c3)C(C)=O)sc2c1` [Compound 24, N-(6-methoxybenzo[d]thiazol-2-yl)-N-(naphthalen-2-ylmethyl)acetamide] the IC50 was greater than 10 µM.

System: PC-3 cells
Experiment: Cell growth inhibition assay (MTT)
Type: cell-based, human
Settings: Homo sapiens, PC-3, 72 h after drug exposure
Procedure: as §1, §2
In the case of `CCNC(=O)N(Cc1ccc2ccccc2c1)c1nc2ccc(OC)cc2s1` [Compound 12, 3-ethyl-1-(6-methoxybenzo[d]thiazol-2-yl)-1-(naphthalen-2-ylmethyl)urea], the IC50 is reported as greater than 10 µM.
`COc1ccc2nc(N(Cc3ccc4ccccc4c3)C(C)=O)sc2c1` [Compound 24, N-(6-methoxybenzo[d]thiazol-2-yl)-N-(naphthalen-2-ylmethyl)acetamide] gave an IC50 greater than 10 µM.

System: T98G cells
Experiment: Cell growth inhibition assay (MTT)
Type: cell-based, human
Settings: Homo sapiens, T98G, 72 h after drug exposure
Procedure: as §1, §2
`CCNC(=O)N(Cc1ccc2ccccc2c1)c1nc2ccc(OC)cc2s1` [Compound 12, 3-ethyl-1-(6-methoxybenzo[d]thiazol-2-yl)-1-(naphthalen-2-ylmethyl)urea] gave an IC50 greater than 10 µM.
`COc1ccc2nc(N(Cc3ccc4ccccc4c3)C(C)=O)sc2c1` [Compound 24, N-(6-methoxybenzo[d]thiazol-2-yl)-N-(naphthalen-2-ylmethyl)acetamide] gave an IC50 greater than 10 µM.

System: U87MG cells
Experiment: Cell growth inhibition assay (MTT)
Type: cell-based, human
Settings: Homo sapiens, U-87 MG; MTT, 72 h after drug exposure
Procedure: as §1, §2
With `CCNC(=O)N(Cc1ccc2ccccc2c1)c1nc2ccc(OC)cc2s1` [Compound 12, 3-ethyl-1-(6-methoxybenzo[d]thiazol-2-yl)-1-(naphthalen-2-ylmethyl)urea] the IC50 was greater than 10 µM.
Work on `COc1ccc2nc(N(Cc3ccc4ccccc4c3)C(C)=O)sc2c1` [Compound 24, N-(6-methoxybenzo[d]thiazol-2-yl)-N-(naphthalen-2-ylmethyl)acetamide] yielded an IC50 greater than 10 µM.

System: GL261 cells
Experiment: Cell growth inhibition assay (MTT)
Type: cell-based, murine
Settings: Mus musculus, GL261, 72 h after drug exposure
Procedure: as §1, §2
In the case of `CCNC(=O)N(Cc1ccc2ccccc2c1)c1nc2ccc(OC)cc2s1` [Compound 12, 3-ethyl-1-(6-methoxybenzo[d]thiazol-2-yl)-1-(naphthalen-2-ylmethyl)urea], the IC50 is reported as greater than 10 µM.
Work on `COc1ccc2nc(N(Cc3ccc4ccccc4c3)C(C)=O)sc2c1` [Compound 24, N-(6-methoxybenzo[d]thiazol-2-yl)-N-(naphthalen-2-ylmethyl)acetamide] yielded an IC50 greater than 10 µM.

System: HEK-293 cells
Experiment: Cell growth inhibition assay (MTT), non-tumorigenic cells
Type: cell-based, human
Settings: Homo sapiens, HEK293, 72 h after drug exposure, non-tumorigenic cell line
Procedure: as §1, §2
With `CCNC(=O)N(Cc1ccc2ccccc2c1)c1nc2ccc(OC)cc2s1` [Compound 12, 3-ethyl-1-(6-methoxybenzo[d]thiazol-2-yl)-1-(naphthalen-2-ylmethyl)urea] the IC50 was greater than 10 µM.
`COc1ccc2nc(N(Cc3ccc4ccccc4c3)C(C)=O)sc2c1` [Compound 24, N-(6-methoxybenzo[d]thiazol-2-yl)-N-(naphthalen-2-ylmethyl)acetamide] showed an IC50 greater than 10 µM.

System: HT-29 cells
Experiment: Cell growth inhibition (MTT) in the presence of 10 µM verapamil (sensitivity to MDR efflux pumps)
Type: cell-based, human
Settings: 10 µM verapamil (P-gp/MDR1 inhibitor)
Procedure: as §2
`CCNC(=O)N(Cc1ccc2ccccc2c1)c1nc2ccc(OC)cc2s1` [Compound 12, 3-ethyl-1-(6-methoxybenzo[d]thiazol-2-yl)-1-(naphthalen-2-ylmethyl)urea] gave an IC50 greater than 10 µM.
Compound `COc1ccc2nc(N(Cc3ccc4ccccc4c3)C(C)=O)sc2c1` [Compound 24, N-(6-methoxybenzo[d]thiazol-2-yl)-N-(naphthalen-2-ylmethyl)acetamide] has an IC50 greater than 10 µM.

System: bovine brain tubulin
Experiment: Tubulin polymerization inhibition (turbidimetry)
Type: biochemical
Settings: 10 µM
Procedure: Microtubular protein was isolated from calf brain following the modified Shelanski method, based on temperature-dependent assembly/disassembly of tubulin [45]. The protein was stored at −80 °C, and its concentration was determined using the Bradford method before each use. Tubulin polymerization, which occurs when heating a buffered tubulin sample from 4 °C to 37 °C, is accompanied by an increase in the absorbance (at 450 nm) of the sample that was monitored by a Helios α spectrophotometer. […] Then, the temperature was adjusted to 4 °C, and the temperature being shifted to 37 °C allowed for the assembly process of tubulin. The turbidity caused by tubulin polymerization was measured by the increased absorbance at 450 nm. The increase in absorbance obtained for the control sample (without the ligand), which we considered to be 100% tubulin polymerization (0% inhibition), compared with the increase in absorbance determined for the sample containing ligands yielded the degree of tubulin polymerization inhibition (TPI), which is expressed as a percentage value. For the compounds displaying TPI values over 50% at 10 µM, the IC50 value for TPI was calculated. Measurements were performed in triplicate in two independent experiments using microtubular protein from different preparations.
For `CCNC(=O)N(Cc1ccc2ccccc2c1)c1nc2ccc(OC)cc2s1` [Compound 12, 3-ethyl-1-(6-methoxybenzo[d]thiazol-2-yl)-1-(naphthalen-2-ylmethyl)urea], the “Tubulin polymerization inhibition (in words)” value was “not able to inhibit tubulin polymerization”.
In the case of `COc1ccc2nc(N(Cc3ccc4ccccc4c3)C(C)=O)sc2c1` [Compound 24, N-(6-methoxybenzo[d]thiazol-2-yl)-N-(naphthalen-2-ylmethyl)acetamide], the “Tubulin polymerization inhibition (in words)” value is reported as “not able to inhibit tubulin polymerization”.

Same assay, conditions: compounds tested at 10 µM, with respect to the negative control
For `CCNC(=O)N(Cc1ccc2ccccc2c1)c1nc2ccc(OC)cc2s1` [Compound 12, 3-ethyl-1-(6-methoxybenzo[d]thiazol-2-yl)-1-(naphthalen-2-ylmethyl)urea], the “% TPI” value was 0%.
With `COc1ccc2nc(N(Cc3ccc4ccccc4c3)C(C)=O)sc2c1` [Compound 24, N-(6-methoxybenzo[d]thiazol-2-yl)-N-(naphthalen-2-ylmethyl)acetamide] the “% TPI” value was 0%.

Same assay, conditions: concentration inhibiting 50% of microtubular protein polymerization in vitro; read-out: TPI IC50
With `CCNC(=O)N(Cc1ccc2ccccc2c1)c1nc2ccc(OC)cc2s1` [Compound 12, 3-ethyl-1-(6-methoxybenzo[d]thiazol-2-yl)-1-(naphthalen-2-ylmethyl)urea] the IC50 was greater than 10 µM.
`COc1ccc2nc(N(Cc3ccc4ccccc4c3)C(C)=O)sc2c1` [Compound 24, N-(6-methoxybenzo[d]thiazol-2-yl)-N-(naphthalen-2-ylmethyl)acetamide] showed an IC50 greater than 10 µM.
